The subject of assay [1] is DNA damage repair genes. Description: Gene expression analysis in patient-derived xenograft mice (CTG-2534). The class given is in vivo, mouse. The conditions noted are these: compound-87 oral, 3-day on/4-day off; tumors taken when solvent group reached 955 mm^3. The text has this: In order to analyze changes in gene expression by PRMT5 inhibitor treatment according to one example of the present invention, patient-derived cells CTG-2534 were xenografted into mice subcutaneously, and then the mice were divided into groups, when the tumor volume reached 80 to 300 mm^3. The solvent-treated group (vehicle group) or the compound-87 treatment group was orally administered on a 3-day on/4-day off schedule. When the tumor volume of the solvent-treated group reached 955 mm^3, the tumors were separated and performed for gene expression analysis.
FIG. 30 is a heat map showing the change in expression of DNA damage repair genes using Z-score values for Log2FPKM, after compound-87 treatment were performed in patient-derived lung cancer […] cell xenograft mice. In FIG. 30, the solvent-treated group is shown in red (positive value), and the compound-87-treated group is shown in blue (negative value).
(In general: Xenograft models place foreign cells or tissue in a host animal.)

Assay [2] deals with CTG-1932, a human non-small cell lung cancer patient-derived cell line. Nature of the assay: Subcutaneous xenograft mouse model of patient-derived CTG-1932 non-small cell lung cancer, tumor growth inhibition. The assay is classed as in vivo. The settings on record: day 9. The method, then: For in vivo efficacy studies in a subcutaneous xenograft mouse model of CTG-1932, a human non-small cell lung cancer patient-derived cell line, combination therapy of compound-87 as a PRMT5 inhibitor according to one example of the present invention and with paclitaxel as a chemotherapy agent, was performed at Champions Oncology (USA).
To produce a non-small cell lung cancer xenograft model, CTG-1932 tumor stock was grown and harvested from primary mice and then transplanted subcutaneously into the left flank of immunocompromised female mice as a 5×5×5 mm^3 tumor fragment. When the tumor volume reached approximately 150-300 mm^3, the mice were separated into four groups of 10 each. All group consisted of a solvent-treated group (vehicle group), a compound-87 monotherapy group (50 mg/kg, oral administration, 3 days on/4 days off), a paclitaxel monotherapy group (20 mg/kg, intraperitoneal administration once a week), and combination treatment group of compound-87 (50 mg/kg, oral administration, 3 days on/4 days off) and paclitaxel (20 mg/kg, intraperitoneal administration once a week). tumor volume and body weight were measured twice a week.

The subject of assay [3] is human pancreatic cancer cells Mia PaCa-2. Description: Subcutaneous xenograft mouse model of Mia PaCa-2 pancreatic cancer cells, tumor growth inhibition. The class given is in vivo. The conditions noted are these: day 24. The method, then: For in vivo efficacy study in a subcutaneous xenograft mouse model of human pancreatic cancer cells Mia PaCa-2, co-administration of compound-87 as a PRMT5 inhibitor according to an example of the present invention and Gemcitabine as an anti-metabolite of a chemotherapeutic agent, was performed. To produce a pancreatic cancer xenograft model, 5 million Mia PaCa-2 cells were injected subcutaneously into the right flank of female nude mice, and tumor growth was monitored.
To evaluate the anticancer effect, mice were divided into six groups when the tumor volume reached approximately 150 mm^3 on average. […] The solvent-treated group (vehicle group) or the compound-87 treatment group was administered orally on a 3-day administration/4-day non-administration schedule, and gemcitabine was administered intraperitoneally twice a week for 24 days (Day 0-Day 23). All mice were euthanized on Day 24, 24 hours after the last administration.

In assay [4] the test system is human pancreatic cancer cells CAPAN-1. Description: Subcutaneous xenograft mouse model of CAPAN-1 pancreatic cancer cells, tumor volume. The class given is in vivo. The conditions noted are these: Day 31, solvent group 1,017 mm^3. The method, then: For in vivo efficacy studies in a subcutaneous xenograft mouse model of human pancreatic cancer cells CAPAN-1, co-administration of compound-87 as a PRMT5 inhibitor according to one example of the present invention and Gemcitabine as an anti-metabolite of a chemotherapeutic agent, was performed.
To produce a pancreatic cancer xenograft model, 5 million CAPAN-1 cells were injected subcutaneously into the right flank of female nude mice, and tumor growth was monitored.
To evaluate the anticancer effect, when the tumor volume reached approximately 185 mm^3 on average, the mice were divided into six groups. The all group included the solvent-treated group (vehicle group), the compound-87 monotherapy group (25 mg/kg or 50 mg/kg), the gemcitabine monotherapy group (50 mg/kg), combination therapy group of the compound-87 (25 mg/kg or 50 mg/kg), and the gemcitabine. The vehicle A group or the compound-87 treatment group was administered orally on a 3-day administration/4-day non-administration schedule, and the vehicle B group or the gemcitabine treatment group was administered intraperitoneally twice a week.

Take `CN1CCC(Oc2ccc3c(c2)OCCN(C[C@H](O)CN2CCc4ccccc4C2)C3=O)CC1` [Compound-87, 4-[(2R)-3-(3,4-dihydro-1H-isoquinolin-2-yl)-2-hydroxy-propyl]-8-[(1-methyl-4-piperidyl)oxy]-2,3-dihydro-1,4-benzoxazepin-5-one]: the “change in expression of DNA damage repair genes (Z-score of Log2FPKM, heat map FIG. 30)” value in assay [1] is listed as “reduced expression of DNA damage repair genes”. The “tumor growth inhibition compared to the solvent-treated group” value in assay [2] (compound-87 50 mg/kg oral single agent, 3 days on/4 off, not significant) is reported as 39%; in assay [2] (compound-87 50 mg/kg oral together with paclitaxel 20 mg/kg i.p. once a week) it was 89%. In addition, the “tumor growth inhibition rate” value came out at 67.7% in assay [3] (compound-87 25 mg/kg combined with gemcitabine 60 mg/kg i.p. twice a week); 42.6% in assay [3] (compound-87 25 mg/kg monotherapy, oral, 3 days on/4 off); 77.0% in assay [3] (compound-87 50 mg/kg combined with gemcitabine 60 mg/kg i.p. twice a week); 56.0% in assay [3] (compound-87 50 mg/kg monotherapy, oral, 3 days on/4 off). Moreover, the tumor volume in assay [4] (Compound-87 25 mg/kg oral (3 days on/4 off) in combination with gemcitabine 50 mg/kg i.p. twice a week) was 379 mm^3; in assay [4] (Compound-87 50 mg/kg oral (3 days on/4 off) in combination with gemcitabine 50 mg/kg i.p. twice a week) it was 235 mm^3.

The values are drawn from US20260137700A1, “PHARMACEUTICAL COMBINATION OF PRMT5 INHIBITOR AND DNA DAMAGE-INDUCING SUBSTANCE” (SK Biopharmaceuticals Co., Ltd., priority 2022, published 2026).
